The values that follow come from patent US20230257372A1 (CHONG KUN DANG PHARMACEUTICAL CORP., priority 2020, published 2023).

Where two headings read alike, the source gives them in different places.

One assay deals with T1, human recombinant HDAC1 (Homo sapiens, UniProt Q13547).
T1 construct: purchased Enzo Life Science, Inc. BML-SE456
The experiment in a line: HDAC1 enzyme activity inhibition (HDAC Fluorimetric Drug Discovery Kit). In kind it is biochemical. In short, it runs like this: (§1)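 Enzyme at 0.3 µg per well was reacted with 10 μM fluorogenic substrate in presence of 5-fold diluted compound, 30° C for 60 min.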

The target in the next assay is T2, human recombinant HDAC6 (Homo sapiens, UniProt Q9UBN7).
T2 construct: purchased Calbiochem Inc. 382180
T2 sequence (Q9UBN7 1-1215): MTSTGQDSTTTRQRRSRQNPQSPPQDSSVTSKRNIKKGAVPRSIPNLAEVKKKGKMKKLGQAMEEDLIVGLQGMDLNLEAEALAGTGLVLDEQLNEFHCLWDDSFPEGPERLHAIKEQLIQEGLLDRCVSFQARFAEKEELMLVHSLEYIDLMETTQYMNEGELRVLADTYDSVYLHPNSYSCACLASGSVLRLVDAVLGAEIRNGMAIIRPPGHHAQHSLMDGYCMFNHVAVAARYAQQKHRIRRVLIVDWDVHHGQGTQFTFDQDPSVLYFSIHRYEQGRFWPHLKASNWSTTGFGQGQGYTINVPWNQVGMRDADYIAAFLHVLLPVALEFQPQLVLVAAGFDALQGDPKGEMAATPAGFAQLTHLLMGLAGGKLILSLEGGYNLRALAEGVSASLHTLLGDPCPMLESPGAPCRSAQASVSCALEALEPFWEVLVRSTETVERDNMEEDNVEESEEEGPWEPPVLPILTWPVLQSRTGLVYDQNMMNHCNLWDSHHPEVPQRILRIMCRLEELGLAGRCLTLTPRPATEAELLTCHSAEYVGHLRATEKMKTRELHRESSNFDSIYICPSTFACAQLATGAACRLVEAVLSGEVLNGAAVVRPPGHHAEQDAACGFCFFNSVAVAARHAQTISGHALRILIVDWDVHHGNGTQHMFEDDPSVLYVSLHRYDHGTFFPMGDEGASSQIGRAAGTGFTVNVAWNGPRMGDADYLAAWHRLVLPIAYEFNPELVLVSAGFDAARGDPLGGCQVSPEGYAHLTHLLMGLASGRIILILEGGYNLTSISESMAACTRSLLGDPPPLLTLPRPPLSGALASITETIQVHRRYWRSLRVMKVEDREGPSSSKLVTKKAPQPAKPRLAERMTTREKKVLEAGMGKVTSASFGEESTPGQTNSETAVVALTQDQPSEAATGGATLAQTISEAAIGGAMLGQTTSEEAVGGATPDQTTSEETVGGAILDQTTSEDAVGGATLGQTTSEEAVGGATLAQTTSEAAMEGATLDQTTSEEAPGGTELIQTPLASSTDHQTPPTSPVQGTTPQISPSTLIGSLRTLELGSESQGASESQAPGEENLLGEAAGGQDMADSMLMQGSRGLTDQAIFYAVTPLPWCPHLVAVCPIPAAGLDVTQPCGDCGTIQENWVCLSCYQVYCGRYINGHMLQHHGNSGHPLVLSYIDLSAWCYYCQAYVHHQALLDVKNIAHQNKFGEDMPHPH
The experiment in a line: HDAC6 enzyme activity inhibition (HDAC Fluorimetric Drug Discovery Kit). In kind it is biochemical. Put shortly:
as §1

[1] abbreviates: human recombinant HDAC1, Fluor de Lys substrate, 30° C. 60 minutes, read-out: HDAC1.
Where [2] appears, read: human recombinant HDAC6, same protocol as HDAC1.
The mark [3] stands for this setting: human recombinant HDAC1, IC50 calculated with GraphPad Prism, read-out: HDAC1.
Where [4] appears, read: human recombinant HDAC6, IC50 calculated with GraphPad Prism.

T1 sequence (Q13547 whole entry): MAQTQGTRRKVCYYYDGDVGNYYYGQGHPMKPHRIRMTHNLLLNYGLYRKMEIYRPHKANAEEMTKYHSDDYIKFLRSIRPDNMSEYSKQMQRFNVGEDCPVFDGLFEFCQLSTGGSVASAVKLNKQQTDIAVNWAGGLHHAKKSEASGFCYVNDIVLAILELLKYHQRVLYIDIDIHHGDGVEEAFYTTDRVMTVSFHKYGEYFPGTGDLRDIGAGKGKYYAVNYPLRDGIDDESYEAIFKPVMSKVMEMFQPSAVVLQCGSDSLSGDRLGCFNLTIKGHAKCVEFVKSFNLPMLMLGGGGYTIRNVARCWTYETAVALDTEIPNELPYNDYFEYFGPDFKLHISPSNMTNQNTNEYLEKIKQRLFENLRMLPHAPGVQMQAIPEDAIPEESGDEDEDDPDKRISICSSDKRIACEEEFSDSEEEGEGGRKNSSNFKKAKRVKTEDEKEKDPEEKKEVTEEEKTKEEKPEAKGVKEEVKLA

`CC(C)N1CCN(c2cccc(-c3cn(Cc4ccc(-c5nnc(C(F)F)o5)cn4)nn3)c2F)CC1` [Compound 4571, 2-(difluoromethyl)-5-(6-((4-(2-fluoro-3-(4-isopropylpiperazin-1-yl)phenyl)-1H-1,2,3-triazol-1-yl)methyl)pyridin-3-yl)-1,3,4-oxadiazole]: the IC50 is greater than 50000 nM at human recombinant HDAC1 (setting [1]) and 18.3 nM at human recombinant HDAC6 (setting [2]). In addition, the “HDAC6 selectivity (fold)” value at human recombinant HDAC6 (HDAC6 over HDAC1) turned out to be 2732 fold.

Take `Fc1ccc(-c2cn(Cc3ccc(-c4nnc(C(F)F)o4)cn3)nn2)cc1F` [Compound 3737, 2-(difluoromethyl)-5-(6-((4-(3,4-difluorophenyl)-1H-1,2,3-triazol-1-yl)methyl)pyridin-3-yl)-1,3,4-oxadiazole]: the IC50 at human recombinant HDAC1 (setting [3]) was greater than 50000 nM; on human recombinant HDAC6 (setting [4]), 47.9 nM. Further, the “HDAC6 selectivity (fold)” value on human recombinant HDAC6 (HDAC1 IC50 / HDAC6 IC50) is reported as 1043 fold.

As to `CN1Cc2ccc(-c3cn(Cc4ccc(-c5nnc(C(F)F)o5)cn4)nn3)cc2C1` [Compound 4540, 2-(difluoromethyl)-5-(6-((4-(2-methylisoindolin-5-yl)-1H-1,2,3-triazol-1-yl)methyl)pyridin-3-yl)-1,3,4-oxadiazole], the IC50 on human recombinant HDAC1 (setting [1]) is greater than 50000 nM; on human recombinant HDAC6 (setting [2]) it was 85.7 nM. The “HDAC6 selectivity (fold)” value on human recombinant HDAC6 (HDAC6 over HDAC1) stood at 583 fold.

Turning to `FC(F)c1nnc(-c2ccc(Cn3cc(-c4cccc5[nH]ccc45)nn3)cc2)o1` [Compound 4078, 2-(4-((4-(1H-indol-4-yl)-1H-1,2,3-triazol-1-yl)methyl)phenyl)-5-(difluoromethyl)-1,3,4-oxadiazole], the IC50 is greater than 50000 nM on human recombinant HDAC1 (setting [3]) and 35.1 nM at human recombinant HDAC6 (setting [4]). Besides, at human recombinant HDAC6 (HDAC1 IC50 / HDAC6 IC50), the “HDAC6 selectivity (fold)” value is on record as 1424 fold.

Regarding `FC(F)c1nnc(-c2ccc(Cn3cc(-c4cccc(CN5CCC5)c4)nn3)cc2)o1` [Compound 4409, 2-(4-((4-(3-(azetidin-1-ylmethyl)phenyl)-1H-1,2,3-triazol-1-yl)methyl)phenyl)-5-(difluoromethyl)-1,3,4-oxadiazole], the IC50 at human recombinant HDAC1 (setting [3]) is greater than 50000 nM; at human recombinant HDAC6 (setting [4]), 519 nM. For the same compound, the “HDAC6 selectivity (fold)” value on human recombinant HDAC6 (HDAC1 IC50 / HDAC6 IC50) is on record as 96 fold.

`FC(F)c1nnc(-c2ccc(Cn3cc(C4CCN(C5COC5)CC4)nn3)nc2)o1` [Compound 3809, 2-(difluoromethyl)-5-(6-((4-(1-(oxetan-3-yl)piperidin-4-yl)-1H-1,2,3-triazol-1-yl)methyl)pyridin-3-yl)-1,3,4-oxadiazole]: the IC50 at human recombinant HDAC1 (setting [3]) was greater than 50000 nM; on human recombinant HDAC6 (setting [4]), 198 nM. For the same compound, the “HDAC6 selectivity (fold)” value at human recombinant HDAC6 (HDAC1 IC50 / HDAC6 IC50) was determined as 253 fold.

On to `CCCCN1CC(c2cn(Cc3ccc(-c4nnc(C(F)F)o4)cn3)nn2)C1` [Compound 3953, 2-(6-((4-(1-butylazetidin-3-yl)-1H-1,2,3-triazol-1-yl)methyl)pyridin-3-yl)-5-(difluoromethyl)-1,3,4-oxadiazole], for which the results for the IC50 at human recombinant HDAC1 (setting [3]) and on human recombinant HDAC6 (setting [4]) were greater than 50000 nM and 498 nM, respectively. Further, the “HDAC6 selectivity (fold)” value on human recombinant HDAC6 (HDAC1 IC50 / HDAC6 IC50) turned out to be 100 fold.

As for `Fc1cc(-c2nnc(C(F)F)o2)ccc1Cn1cc(-c2ccc(N3CCNCC3)cc2F)nn1` [Compound 16797, 2-(difluoromethyl)-5-(3-fluoro-4-((4-(2-fluoro-4-(piperazin-1-yl)phenyl)-1H-1,2,3-triazol-1-yl)methyl)phenyl)-1,3,4-oxadiazole], the results for the IC50 at human recombinant HDAC1 (setting [1]) and on human recombinant HDAC6 (setting [2]) were greater than 50000 nM and 67.7 nM, respectively. Besides, the “HDAC6 selectivity (fold)” value on human recombinant HDAC6 (HDAC6 over HDAC1) was 738 fold.

On to `Fc1ccnc(-c2cn(Cc3ccc(-c4nnc(C(F)F)o4)cn3)nn2)c1` [Compound 4179, 2-(difluoromethyl)-5-(6-((4-(4-fluoropyridin-2-yl)-1H-1,2,3-triazol-1-yl)methyl)pyridin-3-yl)-1,3,4-oxadiazole], for which the IC50 was greater than 50000 nM at human recombinant HDAC1 (setting [3]) and 74.4 nM on human recombinant HDAC6 (setting [4]). For the same compound, the “HDAC6 selectivity (fold)” value at human recombinant HDAC6 (HDAC1 IC50 / HDAC6 IC50) is on record as 672 fold.

Consider `Fc1cc(-c2nnc(C(F)F)o2)ccc1Cn1cc(-c2ccc(N3CCN(C4CCOCC4)CC3)c(F)c2)nn1` [Compound 18327, 2-(difluoromethyl)-5-(3-fluoro-4-((4-(3-fluoro-4-(4-(tetrahydro-2H-pyran-4-yl)piperazin-1-yl)phenyl)-1H-1,2,3-triazol-1-yl)methyl)phenyl)-1,3,4-oxadiazole], for which the IC50 on human recombinant HDAC1 is greater than 50000 nM; at human recombinant HDAC6 (setting [2]), 99.5 nM. Also, on human recombinant HDAC6 (HDAC6 over HDAC1), the “HDAC6 selectivity (fold)” value is 502 fold.

Take `OC1(c2cn(Cc3ccc(-c4nnc(C(F)F)o4)cn3)nn2)CCOC1` (stereo not drawn) [Compound 4277, 3-(1-((5-(5-(difluoromethyl)-1,3,4-oxadiazol-2-yl)pyridin-2-yl)methyl)-1H-1,2,3-triazol-4-yl)tetrahydrofuran-3-ol]: the IC50 was greater than 50000 nM on human recombinant HDAC1 (setting [3]) and 235 nM at human recombinant HDAC6 (setting [4]). Further, on human recombinant HDAC6 (HDAC1 IC50 / HDAC6 IC50), the “HDAC6 selectivity (fold)” value is 212 fold.

As for `FC(F)c1nnc(-c2ccc(Cn3cc(-c4cccc(CN5CC(F)(F)C5)c4)nn3)nc2)o1` [Compound 4400, 2-(6-((4-(3-((3,3-difluoroazetidin-1-yl)methyl)phenyl)-1H-1,2,3-triazol-1-yl)methyl)pyridin-3-yl)-5-(difluoromethyl)-1,3,4-oxadiazole], the IC50 on human recombinant HDAC1 (setting [3]) is greater than 50000 nM; at human recombinant HDAC6 (setting [4]) it was 30.7 nM. The “HDAC6 selectivity (fold)” value on human recombinant HDAC6 (HDAC1 IC50 / HDAC6 IC50) came out at 1628 fold.

Turning to `CC(C)(N)C(=O)Nc1cccc(-c2cn(Cc3ccc(-c4nnc(C(F)F)o4)cn3)nn2)c1` [Compound 4497, 2-amino-N-(3-(1-((5-(5-(difluoromethyl)-1,3,4-oxadiazol-2-yl)pyridin-2-yl)methyl)-1H-1,2,3-triazol-4-yl)phenyl)-2-methylpropanamide], the IC50 on human recombinant HDAC1 (setting [3]) is greater than 50000 nM; at human recombinant HDAC6 (setting [4]), 13.3 nM. In addition, the “HDAC6 selectivity (fold)” value at human recombinant HDAC6 (HDAC1 IC50 / HDAC6 IC50) is 3759 fold.

For `Fc1cc(-c2nnc(C(F)F)o2)ccc1Cn1cc(-c2ccc(CN3CCCC3)s2)nn1` [Compound 17913, 2-(difluoromethyl)-5-(3-fluoro-4-((4-(5-(pyrrolidin-1-ylmethyl)thiophen-2-yl)-1H-1,2,3-triazol-1-yl)methyl)phenyl)-1,3,4-oxadiazole], the IC50 at human recombinant HDAC1 (setting [1]) is greater than 50000 nM; on human recombinant HDAC6 (setting [2]), 32.3 nM. Besides, at human recombinant HDAC6 (HDAC6 over HDAC1), the “HDAC6 selectivity (fold)” value is 1547 fold.

Consider `Fc1cc(-c2cn(Cc3ncc(-c4nnc(C(F)F)o4)cc3F)nn2)ccc1CN1CCCC1` [Compound 18948, 2-(difluoromethyl)-5-(5-fluoro-6-((4-(3-fluoro-4-(pyrrolidin-1-ylmethyl)phenyl)-1H-1,2,3-triazol-1-yl)methyl)pyridin-3-yl)-1,3,4-oxadiazole], for which the IC50 on human recombinant HDAC1 (setting [1]) is greater than 50000 nM; at human recombinant HDAC6 (setting [2]), 58.4 nM. In addition, the “HDAC6 selectivity (fold)” value on human recombinant HDAC6 (HDAC6 over HDAC1) came out at 856 fold.

For the compound `CN(C)Cc1cc(Cl)cc(-c2cn(Cc3ncc(-c4nnc(C(F)F)o4)cc3F)nn2)c1` [Compound 19090, 1-(3-chloro-5-(1-((5-(5-(difluoromethyl)-1,3,4-oxadiazol-2-yl)-3-fluoropyridin-2-yl)methyl)-1H-1,2,3-triazol-4-yl)phenyl)-N,N-dimethylmethanamine], the values for the IC50 at human recombinant HDAC1 (setting [1]) and at human recombinant HDAC6 (setting [2]) were greater than 50000 nM and 68.6 nM, respectively. The “HDAC6 selectivity (fold)” value at human recombinant HDAC6 (HDAC6 over HDAC1) was found to be 728 fold.

On to `CCN1CCc2ccc(-c3cn(Cc4ccc(-c5nnc(C(F)F)o5)cn4)nn3)cc2C1` [Compound 4211, 2-(difluoromethyl)-5-(6-((4-(2-ethyl-1,2,3,4-tetrahydroisoquinolin-7-yl)-1H-1,2,3-triazol-1-yl)methyl)pyridin-3-yl)-1,3,4-oxadiazole], for which the values for the IC50 on human recombinant HDAC1 (setting [3]) and at human recombinant HDAC6 (setting [4]) were greater than 50000 nM and 48.1 nM, respectively. The “HDAC6 selectivity (fold)” value at human recombinant HDAC6 (HDAC1 IC50 / HDAC6 IC50) stood at 1039 fold.
